Blank lines part the entries; values can stand above or below the molecule they belong to. Active and inactive are the calls of the source.
What was measured:
[1] = molecular target: T1, Tyrosine-protein phosphatase non-receptor type 7 (Homo sapiens, UniProt P35236); test: inhibitors of human HePTP phosphatase, […], biochemical, absorbance, leukemia target (AID 521); type: functional
T1 sequence (P35236 whole entry): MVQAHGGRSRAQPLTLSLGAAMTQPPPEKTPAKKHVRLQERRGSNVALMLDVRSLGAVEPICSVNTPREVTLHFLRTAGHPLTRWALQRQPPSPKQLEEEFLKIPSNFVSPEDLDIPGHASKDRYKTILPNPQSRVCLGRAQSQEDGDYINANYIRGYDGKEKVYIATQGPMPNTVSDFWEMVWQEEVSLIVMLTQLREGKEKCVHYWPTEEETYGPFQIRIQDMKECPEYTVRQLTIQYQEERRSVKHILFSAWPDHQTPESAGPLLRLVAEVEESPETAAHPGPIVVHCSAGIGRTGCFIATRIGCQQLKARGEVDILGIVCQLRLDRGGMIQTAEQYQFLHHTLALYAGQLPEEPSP

[2] = Dose-response inhibition of insulin secretion in a rat insulinoma line at 5 mM glucose (AID 1117331); type: functional, cell-based; conditions: INS-1E
cells = type: functional, cell-based; conditions: INS-1E
[3] = molecular target: E3 ubiquitin-protein ligase Mdm2 (Homo sapiens, UniProt Q00987); test: enhancers of MDM2-luciferase reporter signal, concentration-effect titration, project on inhibitors of MDM2 ubiquitin ligase, cellular assay, luminescent readout, 384-well plate format (AID 1394); type: functional;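 also: MDM2 E3 inhibitors raise luminescence so EC50 is for signal enhancement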
E3 ubiquitin-protein ligase Mdm2, sequence (Q00987 whole entry): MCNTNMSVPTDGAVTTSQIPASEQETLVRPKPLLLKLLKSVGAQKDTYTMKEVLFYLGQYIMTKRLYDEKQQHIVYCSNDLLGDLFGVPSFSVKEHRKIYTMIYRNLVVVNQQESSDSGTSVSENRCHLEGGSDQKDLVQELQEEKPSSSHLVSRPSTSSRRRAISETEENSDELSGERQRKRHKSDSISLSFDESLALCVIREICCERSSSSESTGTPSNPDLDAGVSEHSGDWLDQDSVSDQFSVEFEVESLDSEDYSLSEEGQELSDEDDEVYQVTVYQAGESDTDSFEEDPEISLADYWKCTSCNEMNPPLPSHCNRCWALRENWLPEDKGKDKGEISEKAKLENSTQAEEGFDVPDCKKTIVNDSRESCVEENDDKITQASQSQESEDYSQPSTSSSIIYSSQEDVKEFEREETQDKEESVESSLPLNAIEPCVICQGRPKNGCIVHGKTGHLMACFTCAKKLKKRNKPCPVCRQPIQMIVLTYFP

Transthyretin = Transthyretin (Homo sapiens, UniProt P02766); test: Luminescence-based cell-based high throughput dose response assay to identify activators of Transthyretin (TTR) transcription.; type: functional

- IC50 [1]: > 100 µM (not active)
SMILES: O=C(NCc1ccc(F)cc1)c1cc2ccccn2n1

SMILES: Nc1c2c(nc3ccccc13)CCCC2 [TACRINE]
- IC50 [2]: 17.6 µM (inactive)
- IC50 (cells): > 33.3 µM (inactive)

- EC50 [3]: 14.5 µM (not active)
SMILES: COc1ccccc1N1CCN(C(c2ccc(C)cc2)c2nnnn2C(C)C)CC1 (stereo not given)

- EC50 (Transthyretin): > 167 µM (inactive)
SMILES: CCn1ncc(/C=N\NC(=O)c2csc3ccccc23)c1C

Reference: ChEMBL document CHEMBL1201862, “PubChem BioAssay data set” (2004)
